Measurements: ChEMBL document CHEMBL1201862, “PubChem BioAssay data set” (2004)
Activity calls are given as the source filed them.

Legend:
[1] = target: Induced myeloid leukemia cell differentiation protein Mcl-1 (Homo sapiens, UniProt Q07820); format: functional
[2] = LGR2 antagonists, dose response, cell-based, HEK293, CRE-luciferase reporter, cherry pick, set 2 (AID 743343); format: functional;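 further: transfected cells were stimulated with diluted bursicon conditioned medium after compound addition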
[3] = A549 cell cytotoxicity, dose response, cytotoxicity control, plate reader, cherry-pick, antagonist series (AID 743412); format: functional, cell-based
[4] = HEK293 cell cytotoxicity, dose response, cytotoxicity control, plate reader, cherry-picked samples (AID 743446); format: functional, cell-based
[5] = target: T1, Heat shock factor protein 1 (Mus musculus, UniProt P38532); assay: HSF1 potentiators in luciferase reporter cells, confirmation, cell-based, NIH3T3, luminescence, dose retest (AID 435004); format: functional;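 further: stress induced by proteasome inhibitor MG132 added 30 min after compound; luciferase reporter driven by HSF1 response element in NIH3T3 cells; actives raise luminescence as potentiators of the MG132 stress response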
T1 sequence (P38532 whole entry): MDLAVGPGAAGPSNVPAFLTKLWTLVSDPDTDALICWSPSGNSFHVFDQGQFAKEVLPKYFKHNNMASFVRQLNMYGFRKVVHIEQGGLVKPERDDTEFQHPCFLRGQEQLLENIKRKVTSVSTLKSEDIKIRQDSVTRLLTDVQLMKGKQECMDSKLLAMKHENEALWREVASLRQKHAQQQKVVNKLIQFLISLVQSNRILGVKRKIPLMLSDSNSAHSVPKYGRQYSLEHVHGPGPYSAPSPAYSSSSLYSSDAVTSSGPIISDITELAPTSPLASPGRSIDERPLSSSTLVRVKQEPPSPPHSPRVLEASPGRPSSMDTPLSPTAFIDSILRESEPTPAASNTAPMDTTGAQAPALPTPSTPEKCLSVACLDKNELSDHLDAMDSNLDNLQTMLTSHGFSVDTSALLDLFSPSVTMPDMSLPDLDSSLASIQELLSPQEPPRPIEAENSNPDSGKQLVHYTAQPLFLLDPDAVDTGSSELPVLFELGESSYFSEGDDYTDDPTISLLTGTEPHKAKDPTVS

Prothrombin = Prothrombin (Homo sapiens, UniProt P00734); assay: Thrombin 1536 HTS Dose Response Confirmation. [Related pubchem assays: 1046 (Thrombin 1536 HTS; hits were confirmed in this assay)]; format: functional
[6] = inhibitors of intracellular T. cruzi replication, confirmation, NIH3T3 host cells, beta-gal luminescence (AID 2044); format: functional, cell-based;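 further: intracellular parasites grown in NIH/3T3 mouse fibroblasts as host cells; luminescent beta-galactosidase reporter signal from transgenic T. cruzi replicating inside host cells; inhibitors lower the luminescence signal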
[7] = target: T2, Small ubiquitin-related modifier 1 (Homo sapiens, UniProt P63165); assay: inhibitors of SUMO1 partner interactions, dose response, biochemical, FRET (AID 624383); format: functional; details: read-out: IC50_Mean
T2 sequence (P63165 whole entry): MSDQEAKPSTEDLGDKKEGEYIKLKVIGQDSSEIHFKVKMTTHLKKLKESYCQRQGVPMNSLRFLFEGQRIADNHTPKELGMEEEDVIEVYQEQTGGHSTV

Kallikrein-7 = Kallikrein-7 (Homo sapiens, UniProt P49862); assay: Fluorescence Intensity-based biochemical primary high throughput dose response assay to identify activators of kallikrein-7 (K7) zymogen.
Kallikrein-7, sequence (P49862 whole entry): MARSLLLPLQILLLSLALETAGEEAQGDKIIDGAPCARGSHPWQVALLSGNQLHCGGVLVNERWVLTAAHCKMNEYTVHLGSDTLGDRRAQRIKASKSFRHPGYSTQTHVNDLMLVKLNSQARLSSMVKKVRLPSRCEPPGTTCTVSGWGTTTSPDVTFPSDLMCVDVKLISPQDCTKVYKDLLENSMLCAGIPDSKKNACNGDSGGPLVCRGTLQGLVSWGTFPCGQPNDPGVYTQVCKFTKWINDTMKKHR

[8] = target: Luciferin 4-monooxygenase (Photinus pyralis, UniProt P08659); assay: firefly luciferase enzyme inhibitors, dose response, biochemical, luminescence (AID 1891)
Luciferin 4-monooxygenase, sequence (P08659 whole entry): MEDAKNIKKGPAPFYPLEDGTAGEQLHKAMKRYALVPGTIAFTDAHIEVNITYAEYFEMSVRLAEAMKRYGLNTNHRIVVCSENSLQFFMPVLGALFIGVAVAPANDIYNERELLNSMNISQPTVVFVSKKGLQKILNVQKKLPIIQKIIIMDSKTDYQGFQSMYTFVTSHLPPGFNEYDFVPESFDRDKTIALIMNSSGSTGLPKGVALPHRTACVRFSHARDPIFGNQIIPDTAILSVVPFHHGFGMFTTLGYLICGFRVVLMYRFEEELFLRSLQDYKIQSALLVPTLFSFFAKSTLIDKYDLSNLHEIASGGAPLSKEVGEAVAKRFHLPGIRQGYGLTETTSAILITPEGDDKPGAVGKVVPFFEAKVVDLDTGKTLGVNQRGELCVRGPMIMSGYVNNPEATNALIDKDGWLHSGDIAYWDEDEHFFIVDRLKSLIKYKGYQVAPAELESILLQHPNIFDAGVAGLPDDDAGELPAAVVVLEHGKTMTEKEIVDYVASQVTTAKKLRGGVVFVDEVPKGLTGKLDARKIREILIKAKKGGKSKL

[9] = target: T2, Small ubiquitin-related modifier 1; assay: inhibitors of SUMO1 peptide binding, dose response, biochemical, fluorescence polarization, uHTS hits (AID 624382); format: functional; details: read-out: IC50_Mean
[10] = Luminescence Cell-Based Dose Retest to Confirm Inhibitors of Cancer Stem Cells. [Related pubchem assays (depositor defined):AID2717, AID2721]; format: functional; details: Homo sapiens
[11] = cytotoxicity toward NIH3T3 fibroblasts, dose response, counter-screen, cell-based, ATP luminescence, mouse fibroblasts (AID 2010); format: functional;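 further: cells exposed to compound for about 90 hours before reading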
[12] = Luminescence Cell-Based Dose Confirmation HTS to Identify Inhibitors of Platelet Dense Granule Release. [Related pubchem assays: 1663 (Primary HTS), 1678 (Summary of Project)]; format: functional
[13] = inhibitors of Vif binding to APOBEC3G peptide, primary screen, biochemical, TR-FRET, GST-Vif 1-94, biotin-A3G peptide, dose response retest (AID 1117319); format: functional;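 further: TR-FRET signal of purified GST-Vif binding a biotinylated A3G peptide; inhibitors lower the FRET signal by blocking Vif and A3G binding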
[14] = P. falciparum ATP4 D1247Y mutant growth inhibitors, dose response, NITD609-resistant line, SYBR Green, dry powder (AID 1159571); format: functional, cell-based;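 further: parasites synchronized at ring stage by sorbitol before testing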
[15] = P. falciparum Dd2 growth inhibitors, dose response, SYBR Green, dry powder samples (AID 1159566); format: functional, cell-based;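 further: potency for growth inhibition with lower SYBR green DNA signal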
[16] = P. falciparum Dd2 growth inhibitors, dose response, SYBR Green, cherry-picked samples (AID 1159567); format: functional, cell-based
[17] = P. falciparum 3D7-ScDHODH growth inhibitors, dose response, SYBR Green, dry powder samples (AID 1159570); format: functional, cell-based;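 further: parasite growth measured after 72 hours of compound exposure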
Estrogen receptor beta [18] = target: T3, Estrogen receptor beta (Homo sapiens, UniProt Q92731); assay: ERβ–SRC-3 coactivator interaction inhibitors, confirmation, orthogonal assay, biochemical, ELISA, streptavidin-HRP readout (AID 1060)
T3 sequence (Q92731 whole entry, the tested form may be a part): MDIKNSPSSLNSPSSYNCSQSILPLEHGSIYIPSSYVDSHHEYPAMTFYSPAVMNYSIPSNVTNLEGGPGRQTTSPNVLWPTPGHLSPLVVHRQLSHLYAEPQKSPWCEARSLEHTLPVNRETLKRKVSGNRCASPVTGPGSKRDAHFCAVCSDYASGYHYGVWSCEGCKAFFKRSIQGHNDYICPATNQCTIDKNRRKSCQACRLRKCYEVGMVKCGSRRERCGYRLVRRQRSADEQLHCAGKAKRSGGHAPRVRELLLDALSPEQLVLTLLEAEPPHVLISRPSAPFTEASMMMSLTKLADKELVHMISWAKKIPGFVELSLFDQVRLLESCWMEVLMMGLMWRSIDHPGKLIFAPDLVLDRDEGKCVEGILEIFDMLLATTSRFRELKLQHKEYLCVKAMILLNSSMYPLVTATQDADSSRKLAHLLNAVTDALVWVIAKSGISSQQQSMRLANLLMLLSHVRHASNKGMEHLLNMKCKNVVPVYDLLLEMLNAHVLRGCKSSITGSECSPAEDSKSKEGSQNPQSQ

[19] = target: T4, Carboxy-terminal domain RNA polymerase II polypeptide A small phosphatase 1 (Homo sapiens, UniProt Q9GZU7); assay: inhibitors of CTDSP1, concentration-response testing, biochemical assay, absorbance-based, actives from ultra-high-throughput screening (AID 540297); format: functional
T4 sequence (Q9GZU7 whole entry): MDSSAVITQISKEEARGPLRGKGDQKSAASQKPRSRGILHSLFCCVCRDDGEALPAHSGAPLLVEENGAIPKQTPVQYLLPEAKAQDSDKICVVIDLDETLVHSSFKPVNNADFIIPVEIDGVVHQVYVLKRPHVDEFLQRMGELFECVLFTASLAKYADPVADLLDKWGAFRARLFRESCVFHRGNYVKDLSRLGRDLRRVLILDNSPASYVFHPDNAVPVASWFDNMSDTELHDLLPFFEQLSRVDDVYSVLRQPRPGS

Estrogen receptor beta [20] = target: T3, Estrogen receptor beta
H4 = assay: Luminescence Cell-Based Dose Response HTS to Identify Activators of 5'UTR Stem-Loop Driven Prion Protein mRNA Translation in H4 Neuroglioblastoma Cells. [Related pubchem assays: 1829 (Project Summary), 1814 (Primary HTS)]; format: functional; details: Homo sapiens
[21] = target: T5, Low molecular weight phosphotyrosine protein phosphatase (Homo sapiens, UniProt P24666); format: functional; details: read-out: IC50_Mean
T5 sequence (P24666 whole entry): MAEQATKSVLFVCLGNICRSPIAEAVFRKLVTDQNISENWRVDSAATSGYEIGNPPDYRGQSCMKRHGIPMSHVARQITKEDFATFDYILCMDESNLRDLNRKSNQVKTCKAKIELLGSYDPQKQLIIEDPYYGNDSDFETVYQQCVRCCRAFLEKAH

[22] = target: T5, Low molecular weight phosphotyrosine protein phosphatase; format: functional; details: read-out: IC50_Mean; remark: listed apart in the source
Estrogen receptor = target: T6, Estrogen receptor (Homo sapiens, UniProt P03372);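 further: potency for inhibiting coactivator peptide recruitment to the receptor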
T6 sequence (P03372 whole entry): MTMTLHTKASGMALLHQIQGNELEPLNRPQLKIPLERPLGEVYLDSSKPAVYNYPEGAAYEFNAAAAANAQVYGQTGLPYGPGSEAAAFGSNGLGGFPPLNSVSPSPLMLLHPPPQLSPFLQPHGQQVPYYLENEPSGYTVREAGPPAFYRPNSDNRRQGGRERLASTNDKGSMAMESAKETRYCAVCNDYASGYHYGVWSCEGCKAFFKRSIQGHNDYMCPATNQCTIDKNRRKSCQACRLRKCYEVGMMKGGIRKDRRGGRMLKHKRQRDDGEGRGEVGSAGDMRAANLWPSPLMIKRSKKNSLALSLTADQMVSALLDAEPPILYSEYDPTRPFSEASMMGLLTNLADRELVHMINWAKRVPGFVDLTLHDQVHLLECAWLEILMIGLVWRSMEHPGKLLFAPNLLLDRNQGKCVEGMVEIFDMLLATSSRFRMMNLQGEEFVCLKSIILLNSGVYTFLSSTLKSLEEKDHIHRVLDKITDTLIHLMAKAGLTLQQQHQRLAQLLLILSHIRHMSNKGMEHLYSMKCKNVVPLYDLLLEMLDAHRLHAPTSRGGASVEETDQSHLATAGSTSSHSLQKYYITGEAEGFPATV

[23] = target: T7, Mannose-6-phosphate isomerase (Homo sapiens, UniProt P34949); assay: inhibitors of human PMI, primary screen, biochemical, fluorescence intensity, coupled assay (AID 1209)
T7 sequence (P34949 whole entry): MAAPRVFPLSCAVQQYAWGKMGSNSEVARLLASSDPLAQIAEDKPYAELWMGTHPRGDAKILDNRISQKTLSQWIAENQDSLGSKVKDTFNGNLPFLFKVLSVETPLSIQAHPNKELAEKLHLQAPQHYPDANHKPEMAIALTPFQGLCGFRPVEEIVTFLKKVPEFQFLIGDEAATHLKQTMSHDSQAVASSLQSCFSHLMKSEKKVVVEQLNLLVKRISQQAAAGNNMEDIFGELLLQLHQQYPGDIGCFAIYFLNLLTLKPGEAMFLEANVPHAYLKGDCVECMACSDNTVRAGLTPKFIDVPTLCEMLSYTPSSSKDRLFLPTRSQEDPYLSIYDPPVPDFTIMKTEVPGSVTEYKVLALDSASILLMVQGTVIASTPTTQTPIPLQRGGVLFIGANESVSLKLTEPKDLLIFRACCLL

[24] = MC4R antagonists, dose response, counter-screen for LGR2 antagonist project, cell-based, plate reader, cherry pick (AID 743444); format: functional;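 further: transfected HEK 293 cells stimulated with alpha-MSH peptide; potency of inhibitors of the alpha-MSH evoked signal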
Protein skinhead-1 = target: T8, Protein skinhead-1 (Caenorhabditis elegans, UniProt P34707); format: functional
T8 sequence (P34707 whole entry): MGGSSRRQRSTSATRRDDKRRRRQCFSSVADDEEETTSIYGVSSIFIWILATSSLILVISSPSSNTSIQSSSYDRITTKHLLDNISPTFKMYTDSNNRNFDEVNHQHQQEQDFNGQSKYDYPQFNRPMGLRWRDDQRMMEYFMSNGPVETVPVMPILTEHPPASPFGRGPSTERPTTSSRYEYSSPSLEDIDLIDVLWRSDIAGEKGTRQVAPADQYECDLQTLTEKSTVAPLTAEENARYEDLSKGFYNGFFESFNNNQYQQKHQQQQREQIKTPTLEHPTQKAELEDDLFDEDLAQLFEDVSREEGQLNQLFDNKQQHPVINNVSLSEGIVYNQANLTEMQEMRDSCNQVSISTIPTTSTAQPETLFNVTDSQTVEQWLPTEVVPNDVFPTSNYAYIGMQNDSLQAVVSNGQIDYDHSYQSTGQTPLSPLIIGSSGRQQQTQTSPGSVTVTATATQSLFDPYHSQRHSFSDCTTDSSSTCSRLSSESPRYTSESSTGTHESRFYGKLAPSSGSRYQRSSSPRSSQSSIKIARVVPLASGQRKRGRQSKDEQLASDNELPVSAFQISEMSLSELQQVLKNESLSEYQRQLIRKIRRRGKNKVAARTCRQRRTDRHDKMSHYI

Induced myeloid leukemia cell differentiation protein Mcl-1, sequence (Q07820 whole entry): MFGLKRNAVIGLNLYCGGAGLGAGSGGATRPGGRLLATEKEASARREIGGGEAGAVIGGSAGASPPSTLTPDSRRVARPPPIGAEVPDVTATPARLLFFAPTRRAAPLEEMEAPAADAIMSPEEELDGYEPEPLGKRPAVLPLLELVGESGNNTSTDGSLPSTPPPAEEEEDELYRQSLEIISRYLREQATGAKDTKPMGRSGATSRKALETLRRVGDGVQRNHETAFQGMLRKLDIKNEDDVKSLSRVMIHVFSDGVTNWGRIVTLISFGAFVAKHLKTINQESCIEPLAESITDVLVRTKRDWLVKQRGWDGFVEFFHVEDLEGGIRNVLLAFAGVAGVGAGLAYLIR

O=C1CC(N2CCN(S(=O)(=O)c3ccccc3)CC2)C(=O)N1c1ccccc1 (configuration not stated)
IC50 [1]: 9.4 µM (not active)

COc1cc2c(cc1OC)CN(c1ccc([N+](=O)[O-])c(C(F)(F)F)c1)CC2
AC50 [2]: 29.6 µM (active) | AC50 [3]: > 52 µM (inactive) | AC50 [4]: > 52 µM (inactive) | EC50 [5]: 43.1 µM (active)

Cc1cc(=O)[nH]c(SCC(=O)NCC2CCCO2)n1 (configuration not stated)
IC50 (Prothrombin): > 50 µM (not active)

O=C(Nc1ccc2c(c1)OCO2)c1cc(-c2ccc(O)cc2)on1
EC50 [6]: < 0.1 µM (active) | IC50 [7]: 11.5 µM (active) | EC50 (Kallikrein-7): 62.9 µM (inactive) | EC50 [8]: > 112 µM (not active) | IC50 [9]: > 66.6 µM (inactive) | AC50 [10]: 0.356 µM (active) | EC50 (cells): > 10 µM (not active) | EC50 [11]: 6.74 µM (active) | EC50 [12]: > 112 µM (not active)

CN1C(=O)CC(N2CCN(C(=O)c3ccccc3)CC2)C1=O (configuration not stated)
IC50 [13]: > 100 µM (active)

Cc1ccc(C)n1-c1ccc(-c2nnco2)cc1
IC50 (Prothrombin): > 50 µM (not active)

CCOC(=O)CSc1nnc(CNC(=O)c2ccc(S(=O)(=O)N3CCCC3)cc2)n1C
IC50 (Prothrombin): > 50 µM (not active)

OC[C@H]1Nc2ccc(C#Cc3cccnc3)cc2[C@H]2NCC[C@H]21
AC50 [14]: 11.2 µM (active) | AC50 [15]: 7.59 µM (active) | AC50 [16]: 1.08 µM (active) | AC50 [17]: 8.84 µM (active)

C=CCn1c(COc2ccccc2F)nnc1SCC(=O)NC(=O)NCc1ccco1
IC50 (Estrogen receptor beta [18]): > 50 µM (not active) | IC50 [19]: 12.2 µM (active) | IC50 (Estrogen receptor beta [20]): 3.27 µM (active)

Cc1ccc(S(=O)(=O)N2CCN(Cc3nc(O)c4c(C)c(C)sc4n3)CC2)cc1
IC50 [13]: > 100 µM (active)

O=c1c(Cl)c(N/N=C/c2ccc(Cl)cc2)cnn1-c1ccccc1
IC50 [1]: 1.93 µM (active) | EC50 (H4): > 120 µM (not active) | IC50 [21]: > 80 µM (inactive) | IC50 [22]: 35 µM (inactive)

CC1CCc2c(sc(NC(=O)c3ccc(Cn4cc([N+](=O)[O-])cn4)o3)c2C#N)C1 (configuration not stated)
IC50 (Estrogen receptor beta [18]): 11.1 µM (not active) | IC50 (Estrogen receptor): 8.35 µM (active) | IC50 [19]: 4.29 µM (active) | IC50 (Estrogen receptor beta [20]): 2.32 µM (active)

CC[n+]1ccccc1/C=C1\Sc2ccc(C)cc2N1C
EC50 [6]: < 0.1 µM (active) | EC50 (cells): 0.022 µM (active) | EC50 [11]: > 60 µM (not active)

CC1=NN2C(=N)/C(=C\c3ccc(SCc4ccccc4)o3)C(=O)N=C2S1
IC50 [23]: > 50 µM (not active)

COCC#Cc1ccc(CC[C@H]2O[C@H]3CC[C@H](CO)O[C@H]3C[C@@H]2n2cc(C3CC3)nn2)cc1
AC50 [14]: 3.76 µM (active) | AC50 [15]: 2.15 µM (active) | AC50 [16]: 2.33 µM (active) | AC50 [17]: 3.37 µM (active)

Clc1ccc(-c2cc(-c3ccccn3)on2)c(Cl)c1
AC50 [24]: 7.08 µM (active) | IC50 (Protein skinhead-1): > 100 µM (inactive) | AC50 [2]: 3.73 µM (active) | AC50 [3]: > 52 µM (inactive) | AC50 [4]: > 52 µM (inactive)
